Assay results taken from US12403142B2, “Combination therapy with a phosphoinositide 3-kinase inhibitor with a zinc binding moiety” (Curis, Inc., priority 2018, dated 2025).

Tests used:
[1] = test system: mouse xenograft tumor models; test: Antitumor activity in mouse xenograft tumor models; type: in vivo; settings: oral or intravenous administration
[2] = Genotoxicity testing using the Ames test
[3] = test system: tumor tissue; test: Tumor uptake and pharmacodynamics in xenograft tumor bearing mice; type: in vivo, mouse; settings: oral or intravenous dosing
[4] = Oral bioavailability in animal models; type: in vivo
[5] = test system: A20 syngeneic cells; test: Compound 1 and anti-PD-1 in the A20 mouse xenograft model; type: in vivo
Source text: Animals: Female Balb/c Mice, 4-5 weeks old, fed a regular diet
A20 syngeneic cells were collected from flasks and washed once in RPMI 1640 with no additives. […] Animals were implanted with 2×10^5 cells in the right flank. Dosing commenced when tumors were greater than 100 mm^3 (around day 13) and dosing continued for 21 days or until the tumors reached the limit of 2000 mm^3.
Animals started dosing around day 13 when tumors are fully palpable and measured. Dosing continued until tumors begin to show ulceration that requires sacrifice. Tumors were collected before extensive necrosis to run ELISA and Flow analysis.

[6] = test system: CT26.WT mouse colon carcinoma cells; test: Compound 1 and anti-PD-1 in the mouse CT26.WT xenograft model; type: in vivo
Protocol: Animals: Female Balb/c Mice, 8 weeks old, fed a high fat diet
CT26.WT cells were collected from flasks and washed once in RPMI 1640 with no additives. […] Mice were grouped once tumors were palpable on day 7 or day 8 and randomized by body weight. Treatment started with antibody and Compound 1 was begun immediately.
Animals were monitored until the dosing commenced and then were measured twice a week during dosing until tumor volume reached protocol limit or ulceration was too severe. Tumor tissue and blood/plasma were collected at the end of the study.

[7] = test system: a variety of cancer cell lines; test: Antiproliferative activity in vitro; type: cell-based
[8] = test system: HDACs (HeLa cell nuclear extracts); test: HDAC activity assay, Biomol Color de Lys system; type: biochemical; settings: 25° C. for 1 hour
Protocol: HDAC inhibitory activity was assessed using the Biomol Color de Lys system (AK-500, Biomol, Plymouth Meeting, PA). Briefly, HeLa cell nuclear extracts were used as a source of HDACs. Different concentrations of test compounds were serially diluted in dimethylsulfoxide (DMSO) and added to HeLa cell nuclear extracts in the presence of a colorimetric artificial substrate. Final assay condition contained 50 mM Tris/C1, pH 8.0, 137 mM NaCl, 2.7 mM KCl and 1 mM MgCl2. Reactions were carried in room temperature (25° C.) for 1 hour before addition of developer for termination. Relative enzyme activity was measured in the WALLAC Victor II 1420 microplate reader as fluorescence intensity (excitation: 350-380 nm; emission: 440-460 nm). Data were analyzed using GraphPad Prism (v4.0a) with a sigmoidal dose response curve fitting for IC50 calculation.

## COc1ccc(-c2nc(N3CCOCC3)c3sc(CN(C)c4ncc(C(=O)NO)cn4)cc3n2)cn1 [Compound 1, N-Hydroxy-2-(((2-(6-methoxypyridin-3-yl)-4-morpholinothieno[3,2-d]pyrimidin-6-yl)methyl)(methyl)amino)pyrimidine-5-carboxamide]
[1]
  antitumor activity: substantial antitumor activity
[2]
  safety profile (genotoxicity, Ames test): favorable safety profile
[3]
  pharmacodynamic activity in tumor tissue: pharmacodynamic activity in tumor tissue
  uptake by the tumor tissue: significant uptake by the tumor tissue
[4]
  oral bioavailability: significant oral bioavailability
[5]; A20, female Balb/c mice, Day 13, relative to Vehicle (Cmp 1) + isotype group, Cpd 1 100 mg/kg PO 5+2−, mAb 100 μg BIW
  TGI %* (Day 13): 60%
[5]; A20 model, Compound 1 100 mg/kg, anti-PD-1 100 ug/mouse
  tumor growth inhibition: significant tumor growth inhibition
[6]; CT26.WT model, Compound 1 50 mg/kg, anti-PD-1 100 ug/mouse
  inhibition of tumor growth: only small inhibition of tumor growth
[6]; CT26.WT, female Balb/c mice, Day 15, relative to Vehicle (Cmp 1) group, Cpd 1 50 mg/kg PO 5+2−, mAb 100 μg IP BIW
  TGI %* (Day 15): 3%
[7]
  antiproliferative activity: potent antiproliferative activity
[8]
  IC50: < 100 nM
